Laboratory results from patent US7803844B2, “Composition for preventing and/or treating bone disease, physiologically functional or health food containing thereof, and pharmaceutical containing thereof as active ingredients” (Erina Co. Inc., priority 2004, dated 2010).
Like-named read-outs stand apart in the source and are kept apart here.

Key:
MφRAW264 cells [1] = test: Proliferated cell number counting assay (XTT cell viability)
Description: As a non-RI method for determining cell proliferation and cell viability, color reaction by using XTT was employed. MφRAW264 cells were suspended in 10% FBS-MEM, and plated into the 96-well microplate at 0.4×10^4 cells/0.1 mL; then incubated for 1 day. Subsequently, 10% FBS-MEM solution of osteoclast differentiation factor (ODF/RANKL), 100 ng/mL, was added into 0.1 mL per well at final concentration of RANKL, 50 ng/mL. At the same time, honokiol solution at respective concentration was added into the wells. For the control wells, equal volume of methanol not including honokiol was added.
After 3 days incubation, the proliferated cells were counted by using commercially available Cell Proliferation Kit II (Roche Diagnostics Inc., Cat. No. 1 465 015) to obtain the cell viability. The procedure was carried out according to the instruction manual attached, and brief summaries were as follows.
XTT labeling reagent and electron coupling reagent included in the kit were mixed at the ratio of 50:1, and 50 μL of mixture was added per 0.1 mL of medium in each well; then reacted for 4 hours at 37° C. After the termination of the reaction, absorbance at 492 nm of the wave length was measured by using ELISA plate reader (Dainippon Pharma Co.), wherein the reference wave length was 690 nm.
In the above-mentioned (2-2), the same cell proliferation counting assay II was performed instead of honokiol to magnolol and their concentration used was at the range from 20 to 60 μM.

acid phosphatase = conditions: cited from earlier work
[2] = tested on: M-CSF dependent cells derived from mice bone marrow cells; test: Pit formation assay of mature osteoclast; format: cell-based, mouse; conditions: 10 μM, 1 day, calcium phosphate apatite coated plate
Description: Alternatively, the bone marrow cells were obtained form the shanks and femurs from ddy mice of 6 to 9 week age, similarly to the methods employed in the example 3.
Obtained bone marrow cells were suspended in 10% FBS-MEM including 100 U/mL of sodium penicillin G, 100 μg/mL of streptomycin sulfate, 50 ng/mL of M-CSF, and 1 ng/mL of TGF-β. Then, the suspension was plated at 0.85×10^6 cells/0.1 mL/well into the 16 well multi slide plate (BioCoat Osteologic Bone Cell Culture System; BD Biosciences, Cat. No.: 354609) which was coated by calcium phosphate apatite, and incubated under the presence of 5% CO2, at 37° C.
After three days incubation, the medium was exchanged to that including 50 ng/mL of M-CSF and 100 ng/mL of osteoclast differentiation factor (ODF/RANKL). Subsequently, the plates were incubated under the same condition until the formation of actin ring, the osteoclast activated structure, was confirmed. After the actin ring was formed, honokiol prepared as the same concentration used in the example 1 is added, and incubated further one day. To the control group, the solvent without honokiol was added.
After 1 day incubation from the addition of honokiol, the medium in the well was discarded, and the plate was washed by using phosphate buffered saline (PBS); then, 0.1 mL of 0.1 M NaOH is added to every well to dissolve the cells in it. […]

MC3T3-E1 cells [3] = test: Osteoblast differentiation induction assay, osteocalcin concentration (EIA); format: cell-based, mice; conditions: 3 to 30 μM, 14 days, culture supernatant
Description: As an evaluation method for the effect against the differentiation of osteoblast, MC3T3-E1 cell osteoblast differentiation induction assay was used. In the assay, the activity of alkaline phosphatase (ALP), the early stage differentiation marker enzyme of osteoblast, was determined, and the staining utilizing the activity (ALP staining) was performed. Expression level of osteocalcin, which is the marker of the differentiated osteoblast, was determined by using the EIA kit described above. Furthermore, in order to know the cytotoxicity, the cell viability was determined by using MTT assay. MC3T3-E1 cells were plated into the wells of the 96-well microplate at the concentration of 4×10^3 cells/well, and incubated two days under the presence of 5% of CO2, at 37° C. until cells became confluent in the well. […] The medium was exchanged every 3 or 4 days. In order to determine the concentration of osteocalcin, culture supernatant of MC3T3-E1 cells cultured for 14 days under the above-mentioned conditions was used. Amount of osteocalcin in the culture supernatant was determined according to the procedure written on an instruction manual attached to the EIA kit.

MφRAW264 cells [4] = test: Inhibition assay I of the early phase differentiation of osteoclast (TRAP activity); format: cell-based; conditions: for TRAP activity (control %): MφRAW264 cells stimulated by 50 ng/mL ODF/RANKL, honokiol 3-30 μM, magnolol 20-60 μM; for IC50: Osteoclast, 72 h, read-out: IC50, inhibition of MφRAW264 cells to osteoclast by RANKL
Text: Macrophage RAW264 cell line (RIKEN. cell No. CB0535, herein below, referred to as “MφRAW264”), which may differentiate to osteoclast-like cells, was used in the inhibition assay of the early phase differentiation of osteoclast. α-MEM (Invitrogen Co., Cat. No. 11900-024) including 10% of fetal bovine serum (Asahi Technoglass Co., (IWAKI), Cat. No. IWK-500) was used for cultivating MφRAW264. Osteoclast differentiation factor (ODF/RANKL) was purchased from Pepro Tech Inc., Cat. No. 310-01. Inhibition assay I of the early phase differentiation of osteoclast was performed for evaluating the inhibition level of the bone resorption in vitro, the differentiation assay of osteoclast from MφRAW264 cells in early stage. Results of the osteoclast assay were evaluated by determining tartrate resistant acid phosphatase (TRAP) activity, an early stage differentiation marker, and TRAP staining. By using these two indices, activities of flavones from MφRAW264 cells to osteoclast are quantitatively evaluated. MφRAW264 cells were suspended in a α-MEM supplemented 10% of fetal bovine serum (FBS), which is referred to as “10% FBS-MEM herein below”, and plated at 1×10^5 cells/10 mL in 100 mm φ dishes. Then, the dishes were incubated under the presence of 5% of CO2, at 37° C. for 3 days. After confirmed that the plated cells in the dishes became confluent, the incubation was finished. Subsequently, when the cells became confluent, they were treated by using 0.05% of trypsin and Hank's balanced salt solution containing 0.53 mM of EDTA (0.05% Trypsin-0.53 mM EDTA/HBSS (Invitrogen Co., Cat. No. 25300-054) to scrape them, and then suspended in 10% FBS-MEM to plate 0.4×10^4 cells/0.1 mL per each well of 96-well microplates. Then, the plates were incubated one day under the same condition as described above. Osteoclast differentiation factor (ODF/RANKL) was dissolved in 10% FBS-MEM to prepare 100 ng/mL of solution. Alternatively, a stock solution of honokiol was prepared at the concentration of 10 mM in methanol, and stored at −20° C. […] Equal volume of methanol was solely added into the control wells. Honokiol used in the following experiments were the solutions having each concentration prepared as described above. […] Equal volume of methanol without honokiol was added into the control wells. […] Incubation medium in each well of the 96-well microplate was discarded. […] After drying, tartrate resistant acid phosphatase activity was determined (hereinafter, it is referred to as “TRAP assay”), and staining of cells in the well was performed. […] Thirty minutes later, the reaction was terminated by adding 0.1 mL of 0.1 M NaOH, and released p-nitrophenol was determined by the spectrophotometer (Dainippon Pharmaceutical Co. Ltd.) at wave length 405 nm. […]

[5] = tested on: M-CSF dependent cells derived from mice bone marrow cells (BMM); test: Cell proliferation counting assay (XTT) in bone marrow derived cells
Description: Alternatively, the cell proliferation counting assay was performed as the same as that in the example 1, the cell viability was obtained. In FIG. 2A, the cell viability was shown as white columns.

[6] = tested on: M-CSF dependent cells derived from mice bone marrow cells (BMM); test: Inhibition assay II of the early stage differentiation of osteoclast (TRAP activity); format: cell-based, mouse; conditions: for IC50: Bone marrow cell, read-out: IC50, inhibition of differentiation from M-CSF dependent bone marrow cells to osteoclast induced by RANKL; for TRAP activity (control %): 1.5 days, honokiol 3-30 μM, magnolol 20-60 μM
Description: Mouse bone marrow cells were obtained from femurs and shanks of male ddy mice from 6 to 9 week age (Chubu Kagaku Shizai Co. Ltd.)
From 6 to 9 week ages of ddy mice, the femurs and shanks were excised. The bone row cells were extruded from these bones by using a syringe with 22 G×1 and ¼ gauge needle to obtain.
Obtained bone marrow cells were suspended in 10% FBS-MEM supplemented with 100 μg/mL of sodium streptomycin, 100 U/mL of sodium penicillin G, 50 ng/mL of M-CSF, and 1 ng/mL of TGF-β, and then inoculated to each well of the 96-well microplate at the cell concentration of 1×10^6 cells/0.1 mL/well. Then, the plates were incubated under the presence of 5% CO2, at 37° C.
After 3 days incubation, the culture medium was exchanged to that including 50 ng/mL of M-CSF and 50 ng/mL of osteoclast differentiation factor (DF/RANKL), simultaneously honokiol prepared as the same concentration as used in the example 1 was added. The medium of the control group was exchanged that including M-CSF and ODF/RANKL, but no honokiol. The plates were further incubated under the condition of the presence of 5% CO2, at 37° C.
After 1.5 days from the medium exchange, tartrate resistant acid phosphatase activity, the early stage differentiation marker, was measured. Medium in each well was discarded and washed plate with PBS, the cells in the well was fixed for 15 minutes by using 10% HCHO/PBS. Furthermore, the cells were fixed by using ethanol-acetone (1:1) mixture. After fixation, the fixed mixture was discarded and dried at room temperature. After drying, tartrate resistant acid phosphatase (TRAP) of the cells in each well was measured and stained similarly to those in the example 1.
The inhibition assay of the early stage differentiation of osteoclast was carried out similarly to the described above, except honokiol used in the above mentioned (3-2) was substituted to magnolol, and its concentration was from 20 to 60 μM.

MφRAW264 cells [7] = test: Actin ring formation assay I; format: cell-based; conditions: 20 μM, 1 day after actin ring formation, MφRAW264 with ODF/RANKL and PD98059
Description: After that, 0.1 mL of the medium including 100 ng/mL of ODF/RANKL and 20 μM PD98059 was added, and further incubated under the same condition (final concentration of RANKL was 50 ng/mL, and that of PD98059 10 μM). In order to promote the differentiation to the activated osteoclast, two days after the addition of ODF/RANKL and PD98059, the medium was exchanged to that including 50 ng/mL of ODF/RANKL as described above; then the plate was incubated until the actin ring, the activated structure of osteoclast, formation was confirmed. After actin ring was formed, honokiol prepared as the same as that prepared in the example 1 was added, and cultured further one day. […] One day after when honokiol was added to culture, TRAP staining of the tartrate resistant acid phosphatase (TRAP) in each well, similarly o those performed.

MC3T3-E1 cells [8] = test: Cell viability after osteoblast differentiation induction (MTT assay); format: cell-based, mice; conditions: 30 μM, 7 days
Description: As an evaluation method for the effect against the differentiation of osteoblast, MC3T3-E1 cell osteoblast differentiation induction assay was used. In the assay, the activity of alkaline phosphatase (ALP), the early stage differentiation marker enzyme of osteoblast, was determined, and the staining utilizing the activity (ALP staining) was performed. Expression level of osteocalcin, which is the marker of the differentiated osteoblast, was determined by using the EIA kit described above. Furthermore, in order to know the cytotoxicity, the cell viability was determined by using MTT assay. MC3T3-E1 cells were plated into the wells of the 96-well microplate at the concentration of 4×10^3 cells/well, and incubated two days under the presence of 5% of CO2, at 37° C. until cells became confluent in the well. […] The medium was exchanged every 3 or 4 days. In order to determine the cell viability, MC3T3-E1 cells were cultured for 7 days under the condition as described above. After that, MTT reagent was added into the well at the 1/10 volume of the medium in the well, and reacted for 1 hour at 37° C. Then, the medium was removed, and generated formazan was dissolved in DMSO; then its absorbance was measured by using microplate reader at the wave length of 570 nm (reference wave length was 630 nm).

MC3T3-E1 cells [9] = test: Osteoblast differentiation induction assay, ALP activity; format: cell-based, mice; conditions: 3 to 30 μM, 7 days
Description: As an evaluation method for the effect against the differentiation of osteoblast, MC3T3-E1 cell osteoblast differentiation induction assay was used. In the assay, the activity of alkaline phosphatase (ALP), the early stage differentiation marker enzyme of osteoblast, was determined, and the staining utilizing the activity (ALP staining) was performed. Expression level of osteocalcin, which is the marker of the differentiated osteoblast, was determined by using the EIA kit described above. Furthermore, in order to know the cytotoxicity, the cell viability was determined by using MTT assay. MC3T3-E1 cells were plated into the wells of the 96-well microplate at the concentration of 4×10^3 cells/well, and incubated two days under the presence of 5% of CO2, at 37° C. until cells became confluent in the well. […] The medium was exchanged every 3 or 4 days. ALP activity was determined as follows. At first, MC3T3-E1 cells were cultured for 7 days under the same condition as described above; then the medium was removed, and washed by using PBS. After that cells were fixed by using methanol and the dish was dried. […] The reaction was terminated by adding 100 μL of 0.1 N NaOH, and released p-nitrophenol was determined by measuring absorbance at the wave length of 405 nm, by using the plate reader for obtaining ALP activity. […]

[10] = mouse bone marrow M-CSF dependent cells, 50 ng/mL RANKL

| SMILES | non-specific cytotoxicity to MφRAW264 cells (MφRAW264 cells [1]) | inhibition activity of acid phosphatase (acid phosphatase) | pit formation [2] | expression level of osteocalcin (MC3T3-E1 cells [3]) | TRAP activity (control %) (MφRAW264 cells [4]; 3 days) | IC50 (MφRAW264 cells [4]; MφRAW264 cells, RANKL 50 ng/mL, 3 days) | non-specific cytotoxicity (XTT assay) [5] | IC50 [6, 10] | TRAP activity (control %) [6, 10] | actin rings (activated structure of osteoclast) (MφRAW264 cells [7]) | cell viability of MC3T3-E1 cells (MC3T3-E1 cells [8]) | ALP activity (MC3T3-E1 cells [9]) | cell viability (ratio against control wells = 100) (MφRAW264 cells [1]; MφRAW264 cells, XTT, 3 days, honokiol 3-30 μM, magnolol 20-60 μM) | non-specific cytotoxicity to MφRAW264 cells (MφRAW264 cells [1]; XTT, 3 days) | IC50 (MφRAW264 cells [4]) | non-specific cytotoxicity (XTT assay) ([5]; mouse bone marrow M-CSF dependent cells) | IC50 ([6]; Mus musculus) |
| --- | --- | --- | --- | --- | --- | --- | --- | --- | --- | --- | --- | --- | --- | --- | --- | --- | --- |
| C=CCc1ccc(O)c(-c2ccc(O)c(CC=C)c2)c1 [honokiol] | does not show non-specific cytotoxicity | has the inhibition activity of the acid phosphatase | significantly decreased | enhanced | dose-dependently inhibited | 15 µM | did not show non-specific cytotoxicity | 10 µM | inhibited, depending on the dose | destructed | slightly decreased | enhanced in dose dependent manner |  |  |  |  |  |
| C=CCc1ccc(O)c(-c2cc(CC=C)ccc2O)c1 [magnolol] |  | has the inhibition activity of the acid phosphatase |  |  | dose-dependently inhibited |  |  |  | dose-dependently inhibited |  |  |  | seldom decreased | does not show non-specific cytotoxicity | 30 µM | did not show the non-specific cytotoxicity | 30 µM |
